This is an account of results in US20260144788A1, “COMPOUND FOR SHP2 PROTEIN DEGRADATION AND MEDICAL USES THEREOF” (UBIX THERAPEUTICS, INC., priority 2022, published 2026).

In this assay the target is T1, SHP2 protein (Homo sapiens, UniProt Q06124).
T1 sequence (Q06124 1-593): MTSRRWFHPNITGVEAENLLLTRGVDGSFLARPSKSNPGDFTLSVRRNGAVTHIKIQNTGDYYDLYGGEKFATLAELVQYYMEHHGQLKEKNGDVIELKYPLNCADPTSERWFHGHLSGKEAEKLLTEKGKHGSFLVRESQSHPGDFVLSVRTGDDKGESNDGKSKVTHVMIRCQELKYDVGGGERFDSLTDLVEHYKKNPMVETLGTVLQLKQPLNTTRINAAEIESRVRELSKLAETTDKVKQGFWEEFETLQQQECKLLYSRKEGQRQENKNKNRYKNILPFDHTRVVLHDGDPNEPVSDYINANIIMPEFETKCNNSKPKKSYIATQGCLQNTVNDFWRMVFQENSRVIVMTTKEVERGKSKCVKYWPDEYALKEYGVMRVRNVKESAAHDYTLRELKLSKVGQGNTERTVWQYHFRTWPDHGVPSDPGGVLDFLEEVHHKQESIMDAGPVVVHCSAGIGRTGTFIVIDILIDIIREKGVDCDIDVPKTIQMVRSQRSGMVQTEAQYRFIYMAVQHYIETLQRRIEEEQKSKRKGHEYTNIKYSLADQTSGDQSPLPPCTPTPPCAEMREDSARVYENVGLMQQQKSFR
Description: Measurement of SHP2 protein degradation in MV-4-11 cells (western blotting). Format: cell-based. Set-up: endogenous in cells. The note with it: harvested after 24 hours. The method in brief: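 MV-4-11 cells in IMDM/5% FBS were exposed to compound at final 0.01, 0.1, 1 μM or 0.001, 0.01, 0.1 μM for 24 h, DMSO as negative control. BCA-normalised lysates were immunoblotted for SHP2 with GAPDH as loading control, read on LI-COR Odyssey.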
A general note: Immunoblotting shows a protein as a band on a membrane.

In the case of `Cc1ncsc1-c1ccc(CNC(=O)[C@@H]2C[C@@H](O)CN2C(=O)[C@@H](NC(=O)C2(F)CC2)C(C)(C)C)c(O[C@H]2CC[C@H](C(=O)N3CCC(CNc4cccc(Sc5cnc(N6CCC(C)(CN)CC6)cn5)c4Cl)CC3)CC2)c1` [Example 19, (2S,4R)—N-(2-(((1R,4S)-4-(4-(((3-((5-(4-(aminomethyl)-4-methylpiperidin-1-yl)pyrazin-2-yl)thio)-2-chlorophenyl)amino)methyl)piperidine-1-carbonyl)cyclohexyl)oxy)-4-(4-methylthiazol-5-yl)benzyl)-1-((S)-2-(1-fluorocyclopropane-1-carboxamido)-3,3-dimethylbutanoyl)-4-hydroxypyrrolidine-2-carboxamide], the SHP2% degradation is given as 50.4% (0.01 μM) and 95.7% (0.1 μM).

Take `Cc1ncsc1-c1ccc(CNC(=O)[C@@H]2C[C@@H](O)CN2C(=O)[C@@H](NC(=O)C2(F)CC2)C(C)(C)C)c(OC2CCN(C(=O)CC3(O)CCN(c4nccc(Sc5cnc(N6CCC(C)(CN)CC6)cn5)c4Cl)CC3)CC2)c1` [Example 72, (2S,4R)—N-(2-((1-(2-(1-(4-((5-(4-(aminomethyl)-4-methylpiperidin-1-yl)pyrazin-2-yl)thio)-3-chloropyridin-2-yl)-4-hydroxypiperidin-4-yl)acetyl)piperidin-4-yl)oxy)-4-(4-methylthiazol-5-yl)benzyl)-1-((S)-2-(1-fluorocyclopropane-1-carboxamido)-3,3-dimethylbutanoyl)-4-hydroxypyrrolidine-2-carboxamide]: the SHP2% degradation runs as follows: (0.01 μM) 91.5%; (0.1 μM) 99.8%.

Turning to `Cc1ncsc1-c1ccc(CNC(=O)[C@@H]2C[C@@H](O)CN2C(=O)[C@@H](NC(=O)C2(F)CC2)C(C)(C)C)c(OC2CC3(CCN(C(=O)C4CCN(c5nccc(Sc6cnc(N7CCC(C)(CN)CC7)cn6)c5Cl)CC4)CC3)C2)c1` [Example 57, (2S,4R)—N-(2-((7-(1-(4-((5-(4-(aminomethyl)-4-methylpiperidin-1-yl)pyrazin-2-yl)thio)-3-chloropyridin-2-yl)piperidine-4-carbonyl)-7-azaspiro[3.5]nonan-2-yl)oxy)-4-(4-methylthiazol-5-yl)benzyl)-1-((S)-2-(1-fluorocyclopropane-1-carboxamido)-3,3-dimethylbutanoyl)-4-hydroxypyrrolidine-2-carboxamide], the SHP2% degradation by setting is: (0.01 μM) 65.7%; (0.1 μM) 96.8%.

With `Cc1ncsc1-c1ccc(CNC(=O)[C@@H]2C[C@@H](O)CN2C(=O)[C@@H](NC(=O)C2(F)CC2)C(C)(C)C)c(O[C@H]2CC[C@H](C(=O)N3CC(Nc4cccc(Sc5cnc(N6CCC7(CC6)Cc6ccccc6[C@H]7N)cn5)c4Cl)C3)CC2)c1` [Example 14, (2S,4R)—N-(2-(((1R,4S)-4-(3-((3-((5-((S)-1-amino-1,3-dihydrospiro[indene-2,4′-piperidin]-1′-yl)pyrazin-2-yl)thio)-2-chlorophenyl)amino)azetidine-1-carbonyl)cyclohexyl)oxy)-4-(4-methylthiazol-5-yl)benzyl)-1-((S)-2-(1-fluorocyclopropane-1-carboxamido)-3,3-dimethylbutanoyl)-4-hydroxypyrrolidine-2-carboxamide], the SHP2% degradation (0.01 μM) is on record as 1.2% and the SHP2% degradation (0.1 μM) worked out at 85.1%.

On to `Cc1ncsc1-c1ccc(CNC(=O)[C@@H]2C[C@@H](O)CN2C(=O)[C@@H](NC(=O)C2(F)CC2)C(C)(C)C)c(OCCN2CCC(C(=O)N3CCN(c4nccc(Sc5cnc(N6CCC(C)(CN)CC6)cn5)c4Cl)CC3)CC2)c1` [Example 52, (2S,4R)—N-(2-(2-(4-(4-(4-((5-(4-(aminomethyl)-4-methylpiperidin-1-yl)pyrazin-2-yl)thio)-3-chloropyridin-2-yl)piperazine-1-carbonyl)piperidin-1-yl)ethoxy)-4-(4-methylthiazol-5-yl)benzyl)-1-((S)-2-(1-fluorocyclopropane-1-carboxamido)-3,3-dimethylbutanoyl)-4-hydroxypyrrolidine-2-carboxamide], for which the SHP2% degradation runs as follows: (0.01 μM) 20.5%; (0.1 μM) 91.9%.

As for `Cc1ncsc1-c1ccc(CNC(=O)[C@@H]2C[C@@H](O)CN2C(=O)[C@@H](NC(=O)C2(F)CC2)C(C)(C)C)c(O[C@H]2CC[C@H](CN3CC(Nc4cccc(Sc5cnc(N6CCC(C)(CN)CC6)cn5)c4Cl)C3)CC2)c1` [Example 5, (2S,4R)—N-(2-(((1R,4S)-4-((3-((3-((5-(4-(aminomethyl)-4-methylpiperidin-1-yl)pyrazin-2-yl)thio)-2-chlorophenyl)amino)azetidin-1-yl)methyl)cyclohexyl)oxy)-4-(4-methylthiazol-5-yl)benzyl)-1-((S)-2-(1-fluorocyclopropane-1-carboxamido)-3,3-dimethylbutanoyl)-4-hydroxypyrrolidine-2-carboxamide], the SHP2% degradation (0.01 μM) was 22.3% and the SHP2% degradation (0.1 μM) worked out at 62.0%.

For `Cc1ncsc1-c1ccc(CNC(=O)[C@@H]2C[C@@H](O)CN2C(=O)[C@@H](NC(=O)C2(F)CC2)C(C)(C)C)c(O[C@H]2CC[C@H](C(=O)N3CC(Nc4cccc(Oc5cnc(N6CCC(C)(CN)CC6)cn5)c4Cl)C3)CC2)c1` [Example 16, (2S,4R)—N-(2-(((1R,4S)-4-(3-((3-((5-(4-(aminomethyl)-4-methylpiperidin-1-yl)pyrazin-2-yl)oxy)-2-chlorophenyl)amino)azetidine-1-carbonyl)cyclohexyl)oxy)-4-(4-methylthiazol-5-yl)benzyl)-1-((S)-2-(1-fluorocyclopropane-1-carboxamido)-3,3-dimethylbutanoyl)-4-hydroxypyrrolidine-2-carboxamide], the SHP2% degradation is given as −30.1% (0.01 μM) and 94.3% (0.1 μM).

In the case of `Cc1ncsc1-c1ccc(CNC(=O)[C@@H]2C[C@@H](O)CN2C(=O)[C@@H](NC(=O)C2(F)CC2)C(C)(C)C)c(OCCN2CCC(C(=O)N3CC(Nc4cccc(Sc5cnc(N6CCC(C)(CN)CC6)cn5)c4Cl)C3)CC2)c1` [Example 50, (2S,4R)—N-(2-(2-(4-(3-((3-((5-(4-(aminomethyl)-4-methylpiperidin-1-yl)pyrazin-2-yl)thio)-2-chlorophenyl)amino)azetidine-1-carbonyl)piperidin-1-yl)ethoxy)-4-(4-methylthiazol-5-yl)benzyl)-1-((S)-2-(1-fluorocyclopropane-1-carboxamido)-3,3-dimethylbutanoyl)-4-hydroxypyrrolidine-2-carboxamide], the SHP2% degradation amounted to 67.3% (0.01 μM) and 97.6% (0.1 μM).

For the compound `CC(=O)N[C@H](C(=O)N1C[C@H](O)C[C@H]1C(=O)N[C@@H](C)c1ccc(-c2scnc2C)cc1OC1CCN(C(=O)C2CCN(c3nccc(Sc4cnc(N5CCC(C)(CN)CC5)cn4)c3Cl)CC2)CC1)C(C)(C)C` [Example 87, (2S,4R)-1-((S)-2-acetamido-3,3-dimethylbutanoyl)-N—((S)-1-(2-((1-(1-(4-((5-(4-(aminomethyl)-4-methylpiperidin-1-yl)pyrazin-2-yl)thio)-3-chloropyridin-2-yl)piperidine-4-carbonyl)piperidin-4-yl)oxy)-4-(4-methylthiazol-5-yl)phenyl)ethyl)-4-hydroxypyrrolidine-2-carboxamide], the SHP2% degradation is 95.8% (0.01 μM) and 100.0% (0.1 μM).

Regarding `Cc1ncsc1-c1ccc(CNC(=O)[C@@H]2C[C@@H](O)CN2C(=O)[C@@H](NC(=O)C2(F)CC2)C(C)(C)C)c(OCCN2CCN(C(=O)C3CN(c4nccc(Sc5cnc(N6CCC(C)(CN)CC6)cn5)c4Cl)C3)CC2)c1` [Example 53, (2S,4R)—N-(2-(2-(4-(1-(4-((5-(4-(aminomethyl)-4-methylpiperidin-1-yl)pyrazin-2-yl)thio)-3-chloropyridin-2-yl)azetidine-3-carbonyl)piperazin-1-yl)ethoxy)-4-(4-methylthiazol-5-yl)benzyl)-1-((S)-2-(1-fluorocyclopropane-1-carboxamido)-3,3-dimethylbutanoyl)-4-hydroxypyrrolidine-2-carboxamide], the SHP2% degradation (0.01 μM) stood at 70.4% and the SHP2% degradation (0.1 μM) was 99.4%.

As to `Cc1ncsc1-c1ccc(CNC(=O)[C@@H]2C[C@@H](O)CN2C(=O)[C@@H](NC(=O)C2(F)CC2)C(C)(C)C)c(OCCN2CCC(C(=O)N3CCC(Nc4cccc(Sc5cnc(N6CCC(C)(CN)CC6)cn5)c4Cl)CC3)CC2)c1` [Example 51, (2S,4R)—N-(2-(2-(4-(4-((3-((5-(4-(aminomethyl)-4-methylpiperidin-1-yl)pyrazin-2-yl)thio)-2-chlorophenyl)amino)piperidine-1-carbonyl)piperidin-1-yl)ethoxy)-4-(4-methylthiazol-5-yl)benzyl)-1-((S)-2-(1-fluorocyclopropane-1-carboxamido)-3,3-dimethylbutanoyl)-4-hydroxypyrrolidine-2-carboxamide], the SHP2% degradation (0.01 μM) is listed as 32.9% and the SHP2% degradation (0.1 μM) turned out to be 92.6%.
